According to US20200385406A1 (priority 2017, published 2020):
Where two headings read alike, the source gives them in different places.

Key:
HIV-1 NL4-3 = assay: HIV-1 infectivity assay in TZM-bl reporter cells; type: cell-based; conditions: for inhibition at 3 µM: Human immunodeficiency virus 1, NL43, TZM-bl, read-out: % Inhibition of HIV-1 Infectivity at 3 μM relative to ΔNef
Description: The antiretroviral activity of Nef inhibitor analogs was assessed using the reporter cell line, TZM-bl, which are HeLa cells engineered to express CD4, HIV-1 co-receptors, as well as an HIV-1 LTR-luciferase reporter gene. TZM-bl cells (2.5×10^4) were plated in 96-well plates and allowed to adhere overnight prior to infection. Adherent cells and HIV-1NL4-3 (typically 5,000 pg p24/ml) were then incubated separately with compounds for 3 h and combined in a final volume of 200 μl in each well. Following incubation for 48 h at 37° C., the cells were lysed in 50 μl luciferase cell culture lysis reagent (Promega). Lysates (40 μl) were then transferred to white 96-well plates followed by 50 μl injections of luciferase reagent per well (Promega). Luminescence was then recorded with a delay time of 2 s and an integration period of 10 s. Cytotoxicity of each compound in the absence of HIV-1 was evaluated in TZM-bl cells using the CellTiter-Blue cell viability assay (Promega).

HIV-1 Nef NL4-3 = target: T1, HIV-1 Nef NL4-3 (Human immunodeficiency virus type 1 group M subtype B, UniProt P03406, A33V/T15A/T51N/V11I); assay: SPR binding to recombinant purified Nef protein
T1 construct: Full-length recombinant Nef proteins (HIV-1 Nef-SF2, HIV-1 Nef NL4-3 and SIV Nef-mac239) were expressed in E. coli; His-6 (N); made in house; host or cells: E. coli
Description: (§1) Interaction of inhibitor analogs with recombinant purified Nef proteins was performed using an SPR-based binding assay on a Reichert 4-channel SPR instrument. Full-length recombinant Nef proteins (HIV-1 Nef-SF2, HIV-1 Nef NL4-3 and SIV Nef-mac239) were expressed in E. coli and purified via N-terminal His-6 tags, ion-exchange chromatography, and gel filtration. Purity and identity of the Nef proteins was confirmed by SDS-PAGE and mass spectrometry. For SPR, Nef proteins were immobilized on carboxymethyl dextran biosensor chips (Reichert) in HBS-EP running buffer (10 mM HEPES, pH 7.4, 150 mM NaCl, 3 mM EDTA, 0.05% v/v Surfactant P20). Test compounds were injected in triplicate over a range of concentrations (typically 0.1 to 30 μM) at a rate of 10 μL/min for one min until equilibrium was reached, followed by dissociation in HBS-EP for 2 min. Kinetic rate constants were calculated from reference-corrected sensorgrams using the TraceDrawer software package (Reichert), and were best fit via 1:1 Langmuir or 2-step induced-fit binding models. Some initial SPR experiments were performed on a BIAcore T100 instrument (GE Healthcare) using four-channel CM5 biosensor chips, and ligand-protein interactions were best-fit using the BIAevaluations software (version 2.0.4).

SIV Nef-mac239 = SIV Nef-mac239 (Simian immunodeficiency virus, UniProt Q5QGG3); assay: SPR binding to recombinant purified Nef protein
Description: as §1

HIV-1 Nef-SF2 = target: T2, HIV-1 Nef-SF2 (Human immunodeficiency virus type 1 group M subtype B, UniProt P03407); assay: SPR binding to recombinant purified Nef protein
T2 construct: Full-length recombinant Nef proteins (HIV-1 Nef-SF2, HIV-1 Nef NL4-3 and SIV Nef-mac239) were expressed in E. coli; His-6 (N); made in house; host or cells: E. coli
Description: as §1

[1] = HIV-1 Nef-SF2, KD, Reichert 4-Channel instrument, N/I = No Interaction up to 1 μM
[2] = HIV-1 Nef-SF2, KD, Biacore T100 instrument
[3] = SPR, Reichert 4-Channel instrument, N/I = No Interaction up to 1 μM
[4] = Reichert 4-Channel instrument, N/I = No Interaction up to 1 μM

Compound | inhibition at 3 µM (HIV-1 NL4-3) [%] | Kd (HIV-1 Nef NL4-3) [nM] | Kd (SIV Nef-mac239) [nM] | Kd (HIV-1 Nef-SF2; [1]) [nM] | Kd (HIV-1 Nef-SF2; [2]) [nM] | further results
O=C(c1ccc(-n2sc3ncccc3c2=O)cc1)N1CCCC1 [Compound 9, 2-(4-(pyrrolidine-1-carbonyl)phenyl)isothiazolo[5,4-b]pyridin-3(2H)-one] | 38 | 40 | – | – | – | –
O=C(c1cc(-n2sc3ncccc3c2=O)ccc1Cl)N1CCCC1 [Compound 12, 2-(4-chloro-3-(pyrrolidine-1-carbonyl)phenyl)isothiazolo[5,4-b]pyridin-3(2H)-one] | 100 | 960 | 3660 | 1710 | – | –
2-(2-methyl-5-(morpholine-4-carbonyl)phenyl)isothiazolo[5,4-b]pyridin-3(2H)-one [Compound 15] | – | – | – | – | – | % Inhibition of HIV-1 Infectivity at 3 μM relative to ΔNef (HIV-1 NL4-3; 3 μM, TZM-bl reporter cells infected with HIV-1 NL4-3): 81%; Kd (SIV Nef-mac239; SPR, Reichert 4-Channel instrument, N/I = No Interaction up to 1 μM, read-out: SIV Nef-mac239, KD): 1280 nM; Kd (HIV-1 Nef NL4-3; SPR, Reichert 4-Channel instrument, N/I = No Interaction up to 1 μM, read-out: HIV-1 Nef-NL43, KD): 140 nM; Kd (HIV-1 Nef-SF2; Reichert 4-Channel instrument, N/I = No Interaction up to 1 μM, read-out: HIV-1 Nef-SF2, KD): 390 nM
Cc1ccc2c(=O)n(-c3ccc(F)c(C(=O)N4CCOCC4)c3)sc2n1 [Compound 2, 2-(4-fluoro-3-(morpholine-4-carbonyl)phenyl)-6-methylisothiazolo[5,4-b]pyridin-3(2H)-one] | 52 | – | – | – | 500 | –
O=C(c1cc(-n2sc3nc(C(F)(F)F)ccc3c2=O)ccc1Cl)N1CCOCC1 [Compound 8, 2-(4-chloro-3-(morpholine-4-carbonyl)phenyl)-6-(trifluoromethyl)isothiazolo[5,4-b]pyridin-3(2H)-one] | 71 | 310 | 780 | 2340 | 110 | SIV Nef-mac239, KD (SIV Nef-mac239; [3]): N/I; HIV-1 Nef-NL43, KD (HIV-1 Nef NL4-3; [3]): N/I
CC1(C)CN(C(=O)c2cc(-n3sc4ncccc4c3=O)ccc2Cl)CCO1 [Compound 11, 2-(4-chloro-3-(2,2-dimethylmorpholine-4-carbonyl)phenyl)isothiazolo[5,4-b]pyridin-3(2H)-one] | 89 | 210 | 1690 | 220 | – | –
O=C(Nc1ccc(Cl)cc1)c1cc(-n2sc3ncccc3c2=O)ccc1Cl [Compound 7, 2-chloro-N-(4-chlorophenyl)-5-(3-oxoisothiazolo[5,4-b]pyridin-2(3H)-yl)benzamide] | 58 | 190 | 280 | – | 120 | SIV Nef-mac239, KD (SIV Nef-mac239; [3]): N/I; HIV-1 Nef-NL43, KD (HIV-1 Nef NL4-3; [3]): N/I; HIV-1 Nef-SF2, KD (HIV-1 Nef-SF2; [4]): N/I
Cc1ccc2c(=O)n(-c3ccc(Cl)c(C(=O)N4CCOCC4)c3)sc2n1 [Compound 3, 2-(4-chloro-3-(morpholine-4-carbonyl)phenyl)-6-methylisothiazolo[5,4-b]pyridin-3(2H)-one] | 23 | – | – | – | 870 | –
O=C(c1cc(-n2sc3ncccc3c2=O)ccc1Cl)N1CCC(F)(F)CC1 [Compound 16] | 60 | 56200 | 21100 | 9390 | – | –
Cc1ccc(-n2sc3ncccc3c2=O)cc1S(=O)(=O)N1CCCC1 [Compound 6, 2-(4-methyl-3-(pyrrolidin-1-ylsulfonyl)phenyl)isothiazolo[5,4-b]pyridin-3(2H)-one] | 28 | 8660 | 1600 | 2400 | – | –
O=C(c1cc(N2Cc3ncccc3C2=O)ccc1Cl)N1CCOCC1 [Compound 17, 6-(4-chloro-3-(morpholine-4-carbonyl)phenyl)-6,7-dihydro-5H-pyrrolo[3,4-b]pyridin-5-one] | 16 | – | – | – | – | SIV Nef-mac239, KD (SIV Nef-mac239; [3]): N/I; HIV-1 Nef-NL43, KD (HIV-1 Nef NL4-3; [3]): N/I; HIV-1 Nef-SF2, KD (HIV-1 Nef-SF2; [4]): N/I
O=C(c1cc(-n2sc3ncccc3c2=O)ccc1Cl)N1CCCCC1 [Compound 14, 2-(4-chloro-3-(piperidine-1-carbonyl)phenyl)isothiazolo[5,4-b]pyridin-3(2H)-one] | 82 | 1760 | 3110 | 1400 | – | –
CC1CN(C(=O)c2cc(-n3sc4ncccc4c3=O)ccc2Cl)CC(C)O1 (stereo not drawn) [Compound 13, 2-(4-chloro-3-(2,6-dimethylmorpholine-4-carbonyl)phenyl)isothiazolo[5,4-b]pyridin-3(2H)-one] | 100 | 590 | 1410 | 380 | – | –
Cc1ccc2c(=O)n(-c3ccc(C)c(S(=O)(=O)N4CCCC4)c3)sc2n1 [Compound 4, 6-methyl-2-(4-methyl-3-(pyrrolidin-1-ylsulfonyl)phenyl)isothiazolo[5,4-b]pyridin-3(2H)-one] | 32 | – | – | – | 260 | –
O=C(c1cc(-n2sc3ncccc3c2=O)ccc1Cl)N1CCOCC1 [Compound 5, 2-(4-chloro-3-(morpholine-4-carbonyl)phenyl)isothiazolo[5,4-b]pyridin-3(2H)-one] | 99 | 7330 | 1510 | 2240 | 162 | –
O=C(c1cccc(-n2sc3ncccc3c2=O)c1)N1CCOCC1 [Compound 10, 2-(3-(morpholine-4-carbonyl)phenyl)isothiazolo[5,4-b]pyridin-3(2H)-one] | 88 | 250 | – | – | – | –
O=C(c1cc(-n2sc3ncccc3c2=O)ccc1F)N1CCOCC1 [Compound 1, 2-(4-fluoro-3-(morpholine-4-carbonyl)phenyl)isothiazolo[5,4-b]pyridin-3(2H)-one] | 84 | – | – | – | 1030 | –
